Calls of active or inactive are those of the source. The calls are words filed in the database; no cut-off is given here.
Columns and labels:
Assay type in all cases: functional, organism-based
Streptomyces coelicolor = experiment: Antibacterial activity against Streptomyces coelicolor M512 assessed as growth inhibition up to 0.5 umol after 48 hrs
Escherichia coli = experiment: Antibacterial activity against Escherichia coli K-12 assessed as growth inhibition at 0.5 umol after overnight incubation
Bacillus subtilis = experiment: Antibacterial activity against Bacillus subtilis ATCC 14893 assessed as growth inhibition at 0.5 umol after overnight incubation

Row | Structure (SMILES) | growth inhibition (GI) (Streptomyces coelicolor) | growth inhibition (GI) (Escherichia coli) | growth inhibition (GI) (Bacillus subtilis)
1 | NC(=O)CC[C@H](NC(=O)c1cccc2nc3ccccc3nc12)C(=O)O | inactive | inactive | inactive
2 | O=C(O)c1cccc2nc3ccccc3nc12 | inactive | inactive | Active
